Assays:
Type in all cases: in vivo
[1] = test system: spring wheat, TRZAS Triso; test: Treatment 1 day before: safener applied one day before herbicide, crop damage; conditions: 21 DAT; for HER effect + SAF / Reduction [%] / Reduction [Difference]: mefenpyr-diethyl 50 g a.i./ha 1 day before
Source text: (§1) Seeds of crops (spring wheat, TRZAS; spring barley, HORVS; maize, ZEAMA) were placed in sandy loam soil in pots of a diameter of 7-8 cm, covered with soil, and cultivated in a greenhouse under good growth conditions until plants were at the 1-3 leaf stage (BBCH 11-13). For split safener and herbicide treatment, first the safener was applied followed by the herbicide treatment on the following day. The safener and herbicides were formulated as WP and sprayed onto the green parts of the plants as an aqueous suspension at an equivalent water application rate of 300 l/ha, with addition of wetting agent and adjuvants (e.g. Mero, 1.5 l/ha; ammonium sulphate, 2 kg/ha). An equivalent set of plants was treated with the herbicides but without the prior safener treatment.
(§2) After application, the test plants were kept in the greenhouse under good growth conditions. 10 and 21 days after treatment (DAT) with the herbicide, % crop damage observed on the treated plants was scored visually in comparison to control plants that had not received any safener or herbicide treatment.

[2] = test system: spring barley, HORVS Montoya; test: as above; conditions: 21 DAT; for HER effect + SAF / Reduction [%] / Reduction [Difference]: mefenpyr-diethyl 50 g a.i./ha 1 day before
Source text: as §1, §2

[3] = test system: spring wheat, TRZAS Triso; test: Seed treatment with safener; post-emergence herbicide, crop damage; conditions: for HER effect + SAF [%] (crop damage) / Reduction [%] / Reduction [Difference]: mefenpyr-diethyl 0.5 g a.i./kg seed; for HER effect [%] (crop damage, herbicide without safener): no safener
Summary of the method: (§3)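 Wheat and barley seeds were coated with safener (g a.i./kg seed) in a slurry prediluted with milk, then sown and grown to BBCH 12. WP herbicides with 1 l/ha MERO in 300 l/ha water were sprayed post-emergence, with untreated-seed plants as reference. Crop damage (%) was scored visually at 10 and 21 DAT.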

[4] = test system: spring barley, HORVS Montoya; test: as above; conditions: 21 DAT; for HER effect + SAF / Reduction [%] / Reduction [Difference]: mefenpyr-diethyl 0.5 g a.i./kg seed
Summary of the method: as §3

[5] = test system: spring wheat, TRZAS Triso; test: Tank-mix; post-emergence: crop damage by herbicide with/without safener mefenpyr-diethyl
Summary of the method: (§4)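 Greenhouse-grown spring wheat and barley treated post-emergence at 1–3-leaf stage with herbicide alone or tank-mixed with safener, sprayed at various dosages in 300 l/ha water. Crop injury scored visually 1–3 weeks after treatment as % vs untreated (0 none, 100 complete kill).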

[6] = test system: spring barley, HORVS Montoya; test: as above
Summary of the method: as §4

[7] = HER 32 g a.i./ha post-emergence
[8] = HER 8 g a.i./ha + mefenpyr-diethyl 50 g a.i./ha, 10 DAT
[9] = HER 32 g a.i./ha + mefenpyr-diethyl 100 g a.i./ha, 10 DAT
[10] = HER 8 g a.i./ha + mefenpyr-diethyl 50 g a.i./ha, 21 DAT
[11] = HER 32 g a.i./ha + mefenpyr-diethyl 100 g a.i./ha, 21 DAT
[12] = HER 16 g a.i./ha post-emergence
[13] = HER 1 g a.i./ha + mefenpyr-diethyl 50 g a.i./ha, 21 DAT
[14] = HER 1 g a.i./ha + mefenpyr-diethyl 50 g a.i./ha, 10 DAT
[15] = HER 24 g a.i./ha post-emergence
[16] = HER 1.5 g a.i./ha + mefenpyr-diethyl 50 g a.i./ha, 21 DAT
[17] = HER 6 g a.i./ha + mefenpyr-diethyl 50 g a.i./ha, 21 DAT
[18] = HER 24 g a.i./ha + mefenpyr-diethyl 100 g a.i./ha, 21 DAT
[19] = herbicide alone 24 g a.i./ha, 21 DAT

For `CC1(C(=O)NC2C=CC(C(=O)N3CCCCO3)C2)CC(c2cc(F)cc(F)c2)=NO1` (mixture of isomers) [Example 1.46], the “HER effect + SAF” value ([1]; HER 100 g a.i./ha) was 5%, the “Reduction [%]” value ([1]; HER 100 g a.i./ha) was 92% and the “Reduction [Difference]” value ([1]; HER 100 g a.i./ha) was 55. For the same compound, the “HER effect + SAF” value ([1]; HER 200 g a.i./ha) was 5%, the “Reduction [%]” value ([1]; HER 200 g a.i./ha) was 94% and the “Reduction [Difference]” value ([1]; HER 200 g a.i./ha) was 75. For the same compound, the HER effect ([1]; herbicide alone 100 g a.i./ha) was 60%, the HER effect ([1]; herbicide alone 200 g a.i./ha) was 80% and the “HER effect + SAF” value ([2]; HER 25 g a.i./ha) was 10%. The “Reduction [%]” value ([2]; HER 25 g a.i./ha) was 78%, the “Reduction [Difference]” value ([2]; HER 25 g a.i./ha) was 35 and the “HER effect + SAF” value ([2]; HER 50 g a.i./ha) was 20%. For the same compound, the “Reduction [%]” value ([2]; HER 50 g a.i./ha) was 69%, the “Reduction [Difference]” value ([2]; HER 50 g a.i./ha) was 45 and the HER effect ([2]; herbicide alone 25 g a.i./ha) was 45%. The HER effect ([2]; herbicide alone 50 g a.i./ha) was 65%.
With `COC(=O)C1C=CC(NC(=O)C2(C)CC(c3cccc(F)c3)=NO2)C1` (stereo not drawn) [Example 1.20] the “HER effect + SAF [%] (crop damage)” value ([3]; 10 DAT, HER dose 8 g a.i./ha) was 0%, the “Reduction [%]” value ([3]; 10 DAT, HER dose 8 g a.i./ha) was 100% and the “Reduction [Difference]” value ([3]; 10 DAT, HER dose 8 g a.i./ha) was 20. The “HER effect [%] (crop damage, herbicide without safener)” value ([3]; 10 DAT, HER dose 8 g a.i./ha) was 20%, the “HER effect + SAF [%] (crop damage)” value ([3]; 10 DAT, HER dose 32 g a.i./ha) was 0% and the “Reduction [%]” value ([3]; 10 DAT, HER dose 32 g a.i./ha) was 100%. The “Reduction [Difference]” value ([3]; 10 DAT, HER dose 32 g a.i./ha) was 50, the “HER effect [%] (crop damage, herbicide without safener)” value ([3]; 10 DAT, HER dose 32 g a.i./ha) was 50% and the “HER effect + SAF” value ([4]; HER 8 g a.i./ha post-emergence) was 10%. For the same compound, the “Reduction [%]” value ([4]; HER 8 g a.i./ha post-emergence) was 67%, the “Reduction [Difference]” value ([4]; HER 8 g a.i./ha post-emergence) was 20 and the “HER effect + SAF” value [4, 7] was 20%. For the same compound, the “Reduction [%]” value [4, 7] was 75%, the “Reduction [Difference]” value [4, 7] was 60 and the HER effect ([4]; herbicide alone 8 g a.i./ha post-emergence) was 30%. The HER effect ([4]; herbicide alone 32 g a.i./ha post-emergence) was 80%, the “HER effect + SAF” value [5, 8] was 0% and the “Reduction [%]” value [5, 8] was 100%. For the same compound, the “Reduction [Difference]” value [5, 8] was 20, the “HER effect + SAF” value [5, 9] was 30% and the “Reduction [%]” value [5, 9] was 40%. The “Reduction [Difference]” value [5, 9] was 20, the HER effect ([5]; herbicide alone 8 g a.i./ha, 10 DAT) was 20% and the HER effect ([5]; herbicide alone 32 g a.i./ha, 10 DAT) was 50%. The “HER effect + SAF” value [6, 10] was 0%, the “Reduction [%]” value [6, 10] was 100% and the “Reduction [Difference]” value [6, 10] was 30. The “HER effect + SAF” value [6, 11] was 40%, the “Reduction [%]” value [6, 11] was 50% and the “Reduction [Difference]” value [6, 11] was 40. It also gave an HER effect ([6]; herbicide alone 8 g a.i./ha, 21 DAT) of 30% and an HER effect ([6]; herbicide alone 32 g a.i./ha, 21 DAT) of 80%.
For `CC1(C(=O)NC2C=CC(C(=O)O)C2)CC(c2cc(F)cc(F)c2)=NO1` (stereo not drawn) [Example 1.36], the “HER effect + SAF [%] (crop damage)” value ([3]; 21 DAT, HER dose 1 g a.i./ha) was 0%, the “Reduction [%]” value ([3]; 21 DAT, HER dose 1 g a.i./ha) was 100% and the “Reduction [Difference]” value ([3]; 21 DAT, HER dose 1 g a.i./ha) was 85. For the same compound, the “HER effect [%] (crop damage, herbicide without safener)” value ([3]; 21 DAT, HER dose 1 g a.i./ha) was 85%, the “HER effect + SAF [%] (crop damage)” value ([3]; 21 DAT, HER dose 4 g a.i./ha) was 30% and the “Reduction [%]” value ([3]; 21 DAT, HER dose 4 g a.i./ha) was 68%. For the same compound, the “Reduction [Difference]” value ([3]; 21 DAT, HER dose 4 g a.i./ha) was 63, the “HER effect [%] (crop damage, herbicide without safener)” value ([3]; 21 DAT, HER dose 4 g a.i./ha) was 93% and the “HER effect + SAF [%] (crop damage)” value ([3]; 21 DAT, HER dose 16 g a.i./ha) was 50%. For the same compound, the “Reduction [%]” value ([3]; 21 DAT, HER dose 16 g a.i./ha) was 47%, the “Reduction [Difference]” value ([3]; 21 DAT, HER dose 16 g a.i./ha) was 45 and the “HER effect [%] (crop damage, herbicide without safener)” value ([3]; 21 DAT, HER dose 16 g a.i./ha) was 95%. For the same compound, the “HER effect + SAF” value ([4]; HER 4 g a.i./ha post-emergence) was 50%, the “Reduction [%]” value ([4]; HER 4 g a.i./ha post-emergence) was 46% and the “Reduction [Difference]” value ([4]; HER 4 g a.i./ha post-emergence) was 43. The “HER effect + SAF” value [4, 12] was 70%, the “Reduction [%]” value [4, 12] was 26% and the “Reduction [Difference]” value [4, 12] was 25. For the same compound, the HER effect ([4]; herbicide alone 4 g a.i./ha post-emergence) was 93%, the HER effect ([4]; herbicide alone 16 g a.i./ha post-emergence) was 95% and the “HER effect + SAF” value [5, 13] was 20%. For the same compound, the “Reduction [%]” value [5, 13] was 76%, the “Reduction [Difference]” value [5, 13] was 65 and the HER effect ([5]; herbicide alone 1 g a.i./ha, 21 DAT) was 85%. The “HER effect + SAF” value [6, 14] was 60%, the “Reduction [%]” value [6, 14] was 25% and the “Reduction [Difference]” value [6, 14] was 20. It also gave an HER effect ([6]; herbicide alone 1 g a.i./ha, 10 DAT) of 80%.
In the case of `C=CC1(C(=O)NC2C=C(C(=O)OCC#N)OC2)CC(c2cc(F)cc(F)c2)=NO1` (stereo not drawn) [Example 1.91], the “HER effect + SAF [%] (crop damage)” value ([3]; 21 DAT, HER dose 1.5 g a.i./ha) is reported as 10%, the “Reduction [%]” value ([3]; 21 DAT, HER dose 1.5 g a.i./ha) is reported as 86% and the “Reduction [Difference]” value ([3]; 21 DAT, HER dose 1.5 g a.i./ha) is reported as 60. The “HER effect [%] (crop damage, herbicide without safener)” value ([3]; 21 DAT, HER dose 1.5 g a.i./ha) was 70%, the “HER effect + SAF [%] (crop damage)” value ([3]; 21 DAT, HER dose 6 g a.i./ha) was 20% and the “Reduction [%]” value ([3]; 21 DAT, HER dose 6 g a.i./ha) was 78%. The “Reduction [Difference]” value ([3]; 21 DAT, HER dose 6 g a.i./ha) was 70, the “HER effect [%] (crop damage, herbicide without safener)” value ([3]; 21 DAT, HER dose 6 g a.i./ha) was 90% and the “HER effect + SAF [%] (crop damage)” value ([3]; 21 DAT, HER dose 24 g a.i./ha) was 10%. For the same compound, the “Reduction [%]” value ([3]; 21 DAT, HER dose 24 g a.i./ha) was 88%, the “Reduction [Difference]” value ([3]; 21 DAT, HER dose 24 g a.i./ha) was 70 and the “HER effect [%] (crop damage, herbicide without safener)” value ([3]; 21 DAT, HER dose 24 g a.i./ha) was 80%. The “HER effect + SAF” value [4, 15] was 10%, the “Reduction [%]” value [4, 15] was 67% and the “Reduction [Difference]” value [4, 15] was 20. The HER effect ([4]; herbicide alone 24 g a.i./ha post-emergence) was 30%, the “HER effect + SAF” value [5, 16] was 0% and the “Reduction [%]” value [5, 16] was 100%. For the same compound, the “Reduction [Difference]” value [5, 16] was 70, the “HER effect + SAF” value [5, 17] was 20% and the “Reduction [%]” value [5, 17] was 78%. The “Reduction [Difference]” value [5, 17] was 70, the “HER effect + SAF” value [5, 18] was 50% and the “Reduction [%]” value [5, 18] was 38%. For the same compound, the “Reduction [Difference]” value [5, 18] was 30, the HER effect ([5]; herbicide alone 1.5 g a.i./ha, 21 DAT) was 70% and the HER effect ([5]; herbicide alone 6 g a.i./ha, 21 DAT) was 90%. For the same compound, the HER effect [5, 19] was 80%, the “HER effect + SAF” value [6, 18] was 10% and the “Reduction [%]” value [6, 18] was 67%. For the same compound, the “Reduction [Difference]” value [6, 18] was 20 and the HER effect [6, 19] was 30%.

From patent publication US20230200390A1, “SELECTIVE HERBICIDES BASED ON SUBSTITUTED ISOXAZOLIN CARBOXAMIDES AND MEFENPYR-DIETHYL” (BAYER AKTIENGESELLSCHAFT, priority 2020, published 2023)
